The text below walks through data of patent publication US10221420B2, “Aptamer construct” (priority 2014, dated 2019).

The test system of data set [1] is HT29 cells. In words: Internalisation of aptamer-Dox conjugate by confocal microscopy. It counts as cell-based, human. The method, then: Both HT29 and HEK293T were seeded at […] cells per well in 8-chamber slide for 24 h in preparation for confocal microscopy. Cells were incubated with blocking buffer (PBS with 10% FCS, 1 mg/mL BSA, 0.1 mg/mL tRNA) for 20 min, followed by washing twice with washing buffer (PBS containing 5% FBS, 2.5 mM MgCl2, and 5 mM NaCl) prior to incubation with 200 nM aptamer, negative-control aptamer, aptamer-Dox conjugate or […] Bisbenzimide Hoechst 33342 (3 mg/ml) (Sigma)) was added to the cells during the final 15 min of incubation. The aptamer solution was removed and the cells were washed three times for 5 min each in PBS prior to visualisation using a FluoView FV10i laser scanning confocal microscope (Olympus).

Data set [2] addresses T1, CD133 expressed on HT29 cells (Homo sapiens, UniProt O43490).
T1 construct: host or cells: HT-29 human colorectal cancer cells
T1 sequence (O43490 20-865): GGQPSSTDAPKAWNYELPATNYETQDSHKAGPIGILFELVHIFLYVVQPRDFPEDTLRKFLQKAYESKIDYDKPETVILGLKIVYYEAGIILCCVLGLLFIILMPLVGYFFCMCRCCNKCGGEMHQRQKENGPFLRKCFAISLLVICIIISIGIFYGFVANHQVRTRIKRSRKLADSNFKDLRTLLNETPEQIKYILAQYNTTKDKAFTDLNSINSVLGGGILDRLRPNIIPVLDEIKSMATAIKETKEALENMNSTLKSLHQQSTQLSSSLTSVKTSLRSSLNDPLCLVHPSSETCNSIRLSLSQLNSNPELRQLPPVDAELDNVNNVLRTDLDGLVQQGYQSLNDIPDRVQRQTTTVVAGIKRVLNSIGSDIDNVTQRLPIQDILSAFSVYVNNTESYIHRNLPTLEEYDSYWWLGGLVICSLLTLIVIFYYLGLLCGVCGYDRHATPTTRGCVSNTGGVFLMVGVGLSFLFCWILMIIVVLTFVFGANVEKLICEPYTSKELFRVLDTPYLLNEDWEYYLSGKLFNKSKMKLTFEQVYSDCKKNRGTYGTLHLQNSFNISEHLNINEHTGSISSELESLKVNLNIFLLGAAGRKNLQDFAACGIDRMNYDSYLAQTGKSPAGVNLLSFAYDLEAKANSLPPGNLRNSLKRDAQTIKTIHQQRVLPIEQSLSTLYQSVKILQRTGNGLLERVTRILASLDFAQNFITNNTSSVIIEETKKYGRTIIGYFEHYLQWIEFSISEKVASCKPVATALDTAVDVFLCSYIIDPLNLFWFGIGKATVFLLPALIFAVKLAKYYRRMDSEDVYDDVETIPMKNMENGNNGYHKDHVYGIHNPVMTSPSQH
Briefly: Equilibrium dissociation constant by flow cytometry on CD133 positive HT29 cells. The following applies: Cy5 labelled. It counts as binding. As for the experimental part:
To minimize the non-specific binding, 1×10^5 HT29 or HEK293T cells were first incubated with blocking buffer (PBS with 10% FCS, 1% BSA and 1% tRNA) for 20 min. Cells were then washed twice with washing buffer (PBS containing 5% FBS and 2.5 mM MgCl2) and incubated on ice for 1 h with either CD133 aptamer, negative-control aptamer, CD133 aptamer-Dox conjugate or negative-control aptamer-Dox conjugate, all labelled with Cy5 in conjugation buffer (50 mM NaCl, and 2.5 mM MgCl2).
Prior to flow cytometric analysis, cells were again washed twice with washing buffer and then suspended in 150 μl washing buffer. Data was then collected using the flow cytometer (FACS CANTOII, Becton Dickerson) to measure the fluorescence intensity of the aptamer and the binding affinity was determined by normalising the fluorescence intensity with the fluorescent background from that of the negative-control aptamer and then derived using Graph Pad Prism software.
For orientation: In flow cytometry, cells or beads pass a laser one at a time.

Data set [3] has as its system HT29 cells. In words: Tumoursphere formation assay (CSC frequency analysis in vitro). It counts as cell-based, human. To be noted: HT29, 96-well, lower seeding dose (10 or 5 cells/well), versus PBS control. The method, then: Cells were harvested at 80% confluence with trypsin digestion and resuspended as single cells in DMEM/F12 serum-free media following centrifugation (1000×g for 5 min). Cells were plated into 96-well ultralow attachment plates at a density of 5, 10, 50, 100, 500, and 1000 cells per well, or at 4000 cells /well in 6-well ultralow attachment plates for tumoursphere formation. Three experiment groups were used: tumoursphere medium control, free DOX treatment (1, 1.5 and 2 μM) and aptamer-Dox treatment (1, 1.5 and 2 μM equivalent to the same concentration of free DOX). After incubation for 24 h at 37° C. supernatant was removed and replaced with equal volume of fresh CSC medium. A tumoursphere was defined as a cell aggregate with a diameter of over 50 μm with well defined borders. Tumoursphere formation frequency and size were recorded 3 days after seeding. The frequency of CSCs was calculated using the ELDA website (http://bioinf.wehi.edu.au/software/elda/index.html. The tumoursphere formation frequency in 6-well incubation was calculated according to the formula F=Numbers of forming tumourspheres/Number of single cells plated (F is the tumoursphere formation frequency).

Data set [4] concerns the target T2, CD133 (prominin-1) (UniProt O43490 O43490:20-865).
T2 sequence: T1 sequence (O43490 20-865)
In words: flow; HT29 cells, 50 mM NaCl, 2.5 mM MgCl2, on ice 1 h; CD133-negative HEK293T gave KD >1000 nM. The following applies: tags: native CD133 on HT-29 colorectal cancer cells (ATCC); label: Cy5; hairpin with 10-bp DNA stem. The method, then: (§1) Determination of the Equilibrium Dissociation Between the Aptamer-Dox Conjugate and its Target Cells To minimize the non-specific binding, 1×10^5 HT29 or HEK293T cells were first incubated with blocking buffer (PBS with 10% FCS, 1% BSA and 1% tRNA) for 20 min. Cells were then washed twice with washing buffer (PBS containing 5% FBS and 2.5 mM MgCl2) and incubated on ice for 1 h with either CD133 aptamer, negative-control aptamer, CD133 aptamer-Dox conjugate or negative-control aptamer-Dox conjugate, all labelled with Cy5 in conjugation buffer (50 mM NaCl, and 2.5 mM MgCl2).
(§2) To determine whether the conjugation of DOX impedes binding affinity and specificity of the aptamer to CD133 the fluorescently labelled Cy5 aptamer-Dox conjugate was incubated with HT29 colorectal cancer cells and the equilibrium dissociation constant (K_D) was determined via flow cytometric analysis (FIG. 6).
Two cell lines, HT29 and HEK293T, were chosen for the study. […] To ascertain that CD133 aptamer binds to CD133 via specific molecular interaction rather than a non-specific binding between a nucleic acid and CD133, the experiments were repeated with a negative control aptamer-Dox conjugate (FIG. 6B). This negative control aptamer has the identical nucleic acid sequence as the positive aptamer with the exception of a 2'-O-methyl modification instead of a 2'-fluoro chemical modification.

Data set [5] addresses T2, CD133 (prominin-1). In words: flow; HT29 cells, 50 mM NaCl, 2.5 mM MgCl2, on ice 1 h. The following applies: tags: native CD133 on HT-29 colorectal cancer cells (ATCC); label: Cy5; hairpin with 10-bp DNA stem. The method, then: as §1, §2

A word on the Kd: it is the equilibrium constant for the complex coming apart. Turning to “5′-mCGmCGmCGmCmCGmCA(2′fC)G(2′-fU)A(2′fU)A(2′fC)(2′fU)A(2′fU)GmCGGmCGmCGmCG-(inv dT)-3′ (SEQ ID NO:5) (CGCGCGCCGCACGUAUACUAUGCGGCGCGCGT; 2'-F, 5-methyl-dC modifications; 3' inverted dT; a synthetic aptamer against CD133; modified_base (1)..(1) 5-methyl deoxycytidine; modified_base (3)..(3) 5-methyl deoxycytidine; modified_base (5)..(5) 5-methyl deoxycytidine; modified_base (7)..(8) 5-methyl deoxycytidine; modified_base (10)..(10) 5-methyl deoxycytidine; modified_base (12)..(12) 2′-fluoro 5-methyl deoxycytidine; modified_base (14)..(14) 2′-fluoro deoxyuridine; modified_base (16)..) [CD133 aptamer, hybrid RNA/DNA CD133 aptamer; RNA stem replaced with a 10-bp DNA stem containing 5′methyl-dC]”, the “internalisation (Cy5 aptamer)” value in data set [1] is “successfully internalised”. In data set [2], this molecule showed a Kd of 84.8 nM. On to `COc1cccc2c1C(=O)c1c(O)c3c(c(O)c1C2=O)C[C@@](O)(C(=O)CO)C[C@@H]3O[C@H]1C[C@H](N)[C@H](O)[C@H](C)O1` [free DOX, doxorubicin], for which, in data set [3], the “frequency of tumoursphere formation” value was “no significant decrease”.

B1: CD133 aptamer-Dox conjugate (mixed)
RNA: CGCGCGCCGCACGUAUACUAUGCGGCGCGCG
modifications: DNA stem with 5-methyl-dC; 2'-F C and U in RNA loop; 3' inverted dT; doxorubicin intercalated in stem
As for B1, the Kd in data set [4] is 23.9 nM.

B2: CD133 RNA/DNA hybrid aptamer, unconjugated (mixed)
RNA: B1 RNA
modifications: DNA stem with 5-methyl-dC (all stem C except as printed); 2'-F C and U in RNA loop ACGUAUACUAU; 3' inverted dT
With B2, the Kd in data set [5] was 84.8 nM.
